Results published in ChEMBL document CHEMBL1135507, “II. Synthesis and biological evaluation of some bioisosteres and congeners of the antitumor agent, 2-(4-[(7-chloro-2-quinoxalinyl)oxy]phenoxy)propionic acid (XK469)” (2002).
Active and inactive are the calls of the source. The rule behind the calls is not given here.

Experiments:
[1] = tested on: Mus musculus; experiment: […] cytotoxicity against advanced stage pancreatic ductal adenocarcinoma 03 after the administration of 7 injections (iv) at a dose of 560(mg/kg) in 7 Mice; format: functional
[2] = tested on: Mus musculus; experiment: […] cytotoxicity against advanced stage pancreatic ductal adenocarcinoma 03 after the administration of 7 injections (iv) at a dose of 560(mg/kg); format: functional
[3] = […] cytotoxicity against resistant mammary adenocarcinoma-17/adr(M17/adr) after the administration of 6 injections (iv) at a dose of 450 (mg/kg) in 5 Mice; format: functional, Mus musculus
[4] = In vitro cytotoxicity against resistant mammary adenocarcinoma-17/adr(M17/adr) after the administration of 6 injections (iv) at a dose of 450 (mg/kg); format: functional, Mus musculus
[5] = tested on: Mus musculus; experiment: […] cytotoxicity against advanced stage pancreatic ductal adenocarcinoma 03 after the administration of 6 injections (iv) at a dose of 480 (mg/kg) in 4 Mice; format: functional
[6] = tested on: Mus musculus; experiment: […] cytotoxicity against advanced stage pancreatic ductal adenocarcinoma 03 after the administration of 6 injections (iv) at a dose of 480 (mg/kg); format: functional
[7] = In vitro cytotoxicity against resistant mammary adenocarcinoma-17/adr(M17/adr) after the administration of 7 injections (iv) at a dose of 324(mg/kg) in 5 Mice; format: functional, Mus musculus
[8] = In vitro cytotoxicity against resistant mammary adenocarcinoma-17/adr(M17/adr) after the administration of 7 injections (iv) at a dose of 324(mg/kg); format: functional, Mus musculus
[9] = In vitro cytotoxicity against resistant mammary adenocarcinoma-17/adr(M17/adr) after the administration of 6 injections (iv) at a dose of 300 mg/kg in 5 Mice; format: functional, Mus musculus
[10] = In vitro cytotoxicity against resistant mammary adenocarcinoma-17/adr(M17/adr) after the administration of 6 injections (iv) at a dose of 300 mg/kg; format: functional, Mus musculus
[11] = tested on: Mus musculus; experiment: […] cytotoxicity against advanced stage pancreatic ductal adenocarcinoma 03 after the administration of 7 injections (iv) at a dose of 336(mg/kg) in 5 Mice; format: functional
[12] = tested on: Mus musculus; experiment: […] cytotoxicity against advanced stage pancreatic ductal adenocarcinoma 03 after the administration of 7 injections (iv) at a dose of 336(mg/kg); format: functional
[13] = tested on: Mus musculus; experiment: […] cytotoxicity against advanced stage pancreatic ductal adenocarcinoma 03 after the administration of 5 injections (iv) at a dose of 450 (mg/kg) in 5 mice; format: functional
[14] = tested on: Mus musculus; experiment: […] cytotoxicity against advanced stage pancreatic ductal adenocarcinoma 03 after the administration of 5 injections (iv) at a dose of 450 (mg/kg); format: functional
[15] = tested on: Mus musculus; experiment: […] cytotoxicity against advanced stage pancreatic ductal adenocarcinoma 03 after the administration of 5 injections (iv) at a dose of 450 (mg/kg) in 5 Mice; format: functional
[16] = In vitro cytotoxicity against resistant mammary adenocarcinoma-17/adr(M17/adr) after the administration of 6 injections (iv) at a dose of 352(mg/kg) in 5 Mice; format: functional, Mus musculus
[17] = In vitro cytotoxicity against resistant mammary adenocarcinoma-17/adr(M17/adr) after the administration of 6 injections (iv) at a dose of 352(mg/kg); format: functional, Mus musculus
[18] = In vitro cytotoxicity against resistant mammary adenocarcinoma-17/adr(M17/adr) after the administration of 7 injections (iv) at a dose of 462 (mg/kg) in 4 Mice; format: functional, Mus musculus
[19] = tested on: Mus musculus; experiment: […] cytotoxicity against resistant mammary adenocarcinoma-17/adr(M17/adr) after the administration of 7 injections (iv) at a dose of 462 (mg/kg);Activity value is none; format: functional, organism-based
[20] = […] cytotoxicity against resistant mammary adenocarcinoma-17/adr(M17/adr) after the administration of 7 injections (iv) at a dose of 462 (mg/kg); format: functional, Mus musculus
[21] = In vitro cytotoxicity against resistant mammary adenocarcinoma-17/adr(M17/adr) after the administration of 7 injections (iv) at a dose of 370 (mg/kg) in 5 Mice; format: functional, Mus musculus
[22] = In vitro cytotoxicity against resistant mammary adenocarcinoma-17/adr(M17/adr) after the administration of 7 injections (iv) at a dose of 370 (mg/kg); format: functional, Mus musculus
[23] = […] cytotoxicity against resistant mammary adenocarcinoma-17/adr(M17/adr) after the administration (iv) of 13 injections at a dose of 364(mg/kg) in 5 Mice; format: functional, Mus musculus
[24] = […] cytotoxicity against resistant mammary adenocarcinoma-17/adr(M17/adr) after the administration (iv) of 13 injections at a dose of 364(mg/kg); format: functional, Mus musculus
[25] = In vitro cytotoxicity against resistant mammary adenocarcinoma-17/adr(M17/adr) after the administration of 7 injections (iv) at a dose of 455 (mg/kg) in 3 Mice; format: functional, Mus musculus
[26] = tested on: Mus musculus; experiment: […] cytotoxicity against resistant mammary adenocarcinoma-17/adr(M17/adr) after the administration of 7 injections (iv) at a dose of 455 (mg/kg); Activity value is none; format: functional, organism-based
[27] = In vitro cytotoxicity against resistant mammary adenocarcinoma-17/adr(M17/adr) after the administration of 7 injections (iv) at a dose of 455 (mg/kg); format: functional, Mus musculus

`CC(Oc1ccc(Oc2ccc3ccc(Cl)cc3n2)cc1)C(=O)O` (stereo not drawn) showed a Cures [1] of 0, a Drug deaths [1] of 0 and an Activity rating [2] of 2.8. The “Body weight loss at nadir” value [2] was 3.7%, the “Log tumor cell kill” value [2] was 2.3 and the T/C [2] was 14.1%.

For `COc1ccc2ccc(Oc3ccc(OC(C)C(=O)O)cc3)nc2c1` (stereo not drawn), the Cures [3] was 0, the Drug deaths [3] was 0 and the Activity rating [4] was >2.8. The “Body weight loss at nadir” value [4] was -5%, the “Log tumor cell kill” value [4] was 3 and the T/C [4] was 0%.

In the case of `CC(Oc1ccc(Oc2ccc3ccc(Br)cc3n2)cc1)C(=O)O` (stereo not drawn), the Cures [5] is reported as 0, the Drug deaths [5] is reported as 0 and the Activity rating [6] is reported as >2.8. For the same molecule, the “Body weight loss at nadir” value [6] was 5.9%, the “Log tumor cell kill” value [6] was 3.1 and the T/C [6] was 2.8%.

For `CC(Oc1ccc(Oc2cnc3ccc(Cl)cc3n2)cc1)C(=O)O` (stereo not drawn), the Cures [1] was 0, the Drug deaths [1] was 0 and the Activity rating [2] was 2.8. The “Body weight loss at nadir” value [2] was 2.5%, the “Log tumor cell kill” value [2] was 2 and the T/C [2] was 24.5%.

`CC(Oc1ccc(Oc2ccc3ccc(F)cc3n2)cc1)C(=O)O` (racemic) showed a Cures [7] of 0, a Drug deaths [7] of 0 and an Activity rating [8] of 1.9. The “Body weight loss at nadir” value [8] was -1.6%, the “Log tumor cell kill” value [8] was 1.5 and the T/C [8] was 14%.

With `CC(Oc1ccc(Oc2ccc3ccc(Cl)cc3n2)cc1)C(=O)O` (racemic) the Cures [9] was 0, the Drug deaths [9] was 0 and the Activity rating [10] was >2.8. For the same molecule, the “Body weight loss at nadir” value [10] was -10.6%, the “Log tumor cell kill” value [10] was 3.8 and the T/C [10] was 0%. For the same molecule, the Cures [11] was 0, the Drug deaths [11] was 0 and the Activity rating [12] was 2.8. The “Body weight loss at nadir” value [12] was -8.9%, the “Log tumor cell kill” value [12] was 2.6 and the T/C [12] was 0%.

In the case of `COc1ccc2ccc(Oc3ccc(OC(C)C(=O)O)cc3)nc2c1` (racemic), the Cures [13] is reported as 0, the Activity rating [14] is reported as 1.2 and the “Body weight loss at nadir” value [14] is reported as -2%. The “Log tumor cell kill” value [14] was 0.8, the T/C [14] was 45% and the Drug deaths [15] was 0.

For `CC(Oc1ccc(Oc2ccc3ccc(Br)cc3n2)cc1)C(=O)O` (racemic), the Cures [16] was 0, the Drug deaths [16] was 0 and the Activity rating [17] was >2.8. For the same molecule, the “Body weight loss at nadir” value [17] was -5.5%, the “Log tumor cell kill” value [17] was 4.2 and the T/C [17] was 0%.

For `CC(Oc1ccc(Oc2nc3cc(Cl)ccc3o2)cc1)C(=O)O` (racemic), the Cures [18] was 0, the Drug deaths [18] was 0 and the “Log tumor cell kill” value [19] was “inactive”. The Activity rating [20] was <0.7, the “Body weight loss at nadir” value [20] was -2.3% and the T/C [20] was >100%.

`CC(Oc1ccc(Oc2ccc3ccc(I)cc3n2)cc1)C(=O)O` (racemic) showed a Cures [21] of 0, a Drug deaths [21] of 0 and an Activity rating [22] of 1.9. The “Body weight loss at nadir” value [22] was -4%, the “Log tumor cell kill” value [22] was 2.1 and the T/C [22] was 2%.

In the case of `CC(Oc1ccc(Oc2cnc3ccc(Cl)cc3n2)cc1)C(=O)O` (racemic), the Cures [23] is reported as 0, the Drug deaths [23] is reported as 0 and the Activity rating [24] is reported as >2.8. The “Body weight loss at nadir” value [24] was 0%, the “Log tumor cell kill” value [24] was 2.82 and the T/C [24] was 10.3%.

For `CC(Oc1ccc(Oc2nc3ccc(Cl)cc3o2)cc1)C(=O)O` (racemic) [FENOXAPROP], the Cures [25] was 0, the Drug deaths [25] was 0 and the “Log tumor cell kill” value [26] was “inactive”. For the same molecule, the Activity rating [27] was <0.7, the “Body weight loss at nadir” value [27] was 0% and the T/C [27] was >100%.
